Test results: US20190002585A1, “CANCER TREATMENT METHODS AND COMPOSITIONS” (The Cleveland Clinic Foundation, priority 2017, published 2019)
Where a SMILES comes first, the peptide text is derived from it. The star is where a group is joined. Cbz = O=C(OCc1ccccc1)*; CH2F = FC*

Assays:
WT A549 cells [1] = assay: Cell death assay, IncuCyte real-time imaging, dual dye; type: cell-based
Description: (§1) Cell lines and viruses. Human A549 cells (ATCC® CCL-185™) validated by STR analysis were cultured in RPMI 1640 medium (Gibco) supplemented with 10% fetal bovine serum (FBS), 100U/ml penicillin and 100 μg/ml streptomycin. PC3, DU145 and C4-2 cells were grown in RPMI with 10% FBS. HAEC, BEAS 2B and BETA cells were grown in LHC-8 (Biofluids/Biosource, catalog #P141-500) supplemented with 0.1% epinehrin (Biofluids/Biosource, catalog #355-002), 3.3 mM retinoic acid (Biofluids/Biosource, catalog #348-001) and penicillin-streptomycin-fungizone (Invitogen, catalog #15240-062) and were a gift from Drs. Suzy Comhair and Serpil Erzurum (Cleveland Clinic).
(§2) Cells (20,000 per well) were seeded in 24-well plates or 8,000 cells per well in 96-well plates and treated as stated in figure legends. The cells were incubated with 250 nM Sytox-Green dye (Thermo Fisher), a nucleic acid stain that is an indicator of dead cells and which is impermeant to live cells, and 250 nM of cell permeable dye Syto™ 60-Red (ThermoFisher), which allows quantification of the total number of cells present in each field, using an IncuCyte Live-Cell Imaging System and software (Essen Instruments 2015A) for 72 hours. Cell death was measured by counting the green objects per/well (dead cells, green) and then normalizing to the total number of cells per/well (red objects) at each time point using IncuCyte software.

RNase L KO A549 cells [2] = assay: as above; type: cell-based, human; parameters: AZA sensitivity: dose or concentration left out as unconfirmed
Description: as §1
(§3) The A549 RNase L KO cells were described previously. Additional knockout cells were generated using the CRISPR Cas9 system. The sgRNA sequences were chosen from a published database. The guide RNA sequences were synthesized as DNA oligonucleotides by IDT. Primers were annealed, phosphorylated and ligated into vector LentiCRISPR v2 (Addgene 52961) that was prepared by digestion with BsmBI. The resulting plasmids were transformed into Stbl3 chemically competent cells (Invitrogen) and grown on a bacterial culture plate at 37° C. Colonies were screened by PCR using the U6 primer and gene specific reverse primer to generate approximately 300 bp product. Positive clones were cultured and plasmid DNA was prepared and sequence verified using the U6 primer. The AKAP7 sgRNA sequences are: sgAKAP7-2 FW CACCGTGAGCGACTGGCCAAAGCAA (SEQ ID NO:1) and sgAKAP7-2 REV AAACTTGCTTTGGCCAGTCGCTCA C (SEQ ID NO:2). The PDE12 sgRNA sequences are: sgPDE12_10.FW CACCGGGATGCCTGGCAAGACGGCG (SEQ ID NO:3) and sgPDE12_10.REV AAACCGCCGTCTTGCCAGGCATCCC (SEQ ID NO:4). Cell cloning was done by limited dilution. The CRISPR vector, pLenti-sgRL-6, was used to knockout RNase L in PC3 cells as we described for RNase L KO A549 cells. To obtain the PDE12/AKAP7 DKO cells, a PDE12 knockout A549 cell line was infected with pseudo lentiviruses expression sgRNA for AKAP7 followed by single cell cloning. The PDE12/RNase L DKO cells were obtained by infecting the RNase L KO A549 cells with the pseudo lentivirus expressing sgRNA for AKAP7 followed by single cell cloning. Resulting clones were screened for knock-out of expression using Western Blots with anti-PDE12 antibody (Abcam ab87738), anti-AKAP7 (Proteintech: Cat#12591-1-AP) antibody or monoclonal antibody against human RNase L [13].
as §2

MAVS KO A549 cells [3] = assay: Cell death assay, IncuCyte real-time imaging; type: cell-based, human; conditions: different doses of AZA, compared with WT
Description: as §2, with “SytoTM” for “Syto™”, “[…])” for “2015A)”

[4] = test system: MAVS-RNase L DKO A549 cells; assay: Cell death assay, IncuCyte real-time imaging; type: cell-based, human; conditions: concentrations up to 100 uM
Description: as §2, with “SytoTM” for “Syto™”, “[…])” for “2015A)”

MAVS KO A549 cells [5] = assay: Apoptosis assay (caspase 3/7), IncuCyte; type: cell-based, human; conditions: 50 uM AZA, compared with WT
Description: (§4) Cells were seeded in 96-well plates and treated with Aza as above. The cells were incubated with IncuCyte™ Kinetic Caspase-3/7 Apoptosis Assay Reagent (green) according to manufacturer's protocol and with 250 nM of Syto Red dye (ThermoFisher) for 24 hours. The apoptotic index was determined by determining the total count [green Integrated Intensity (GCU×μm^2/Image)] and then normalizing by count confluence (percent) using IncuCyte software.

[6] = test system: MAVS/RNase L DKO A549 cells; assay: Apoptosis assay (caspase 3/7), IncuCyte; type: cell-based, human; conditions: 50 uM AZA
Description: as §4

RNase L KO A549 cells [7] = assay: Apoptosis assay (caspase 3/7), IncuCyte; type: cell-based, human; conditions: 50 uM AZA
Description: as §4

WT A549 cells [8] = assay: Apoptosis assay (caspase 3/7), IncuCyte; type: cell-based, human
Description: as §4

RNase L KO A549 cells [9] = assay: PARP cleavage, Western blot; type: cell-based, human; conditions: 50 uM AZA for 48 hours
Description: (§5) PARP cleavage was monitored in Western blots probed with [anti PAPR1 (rabbit polyclonal) (Santa Cruz Biotechnology)]. β-actin levels were monitored with 3-actin (mouse monoclonal) antibody (Sigma-Aldrich) to evaluated as a control.
(§6) Prior to lysis, cells were washed twice in cold phosphate-buffered saline (PBS). Cell extracts were prepared with lysis buffer supplemented with phosphatase/protease inhibitors followed by incubation on ice for 20 min. Lysates were subjected to centrifugation at 12,000 g for 10 min, and the supernatants collected and protein quantified by Bradford assays (BioRaD). Cell lysates ([…]) were separated on 8% or 10% SDS PAGE gels and proteins were transferred to polyvinylidene difluoride membranes (0.45 μm) (BioRaD) and probed with antibodies according to the different manufacturers' recommendations.

WT A549 cells [10] = assay: PARP cleavage, Western blot; type: cell-based, human; conditions: 50 uM AZA for 48 hours
Description: as §5, §6

[11] = test system: bronchial epithelial cells BETA; assay: Cell death assay, IncuCyte live-cell imaging; type: cell-based, human; conditions: FIG. 7
Description: as §1, §2

[12] = test system: bronchial epithelium BEAS 2B cells; assay: Cell death assay, IncuCyte live-cell imaging; type: cell-based, human; conditions: FIG. 7
Description: as §1, §2

[13] = test system: primary alveolar epithelial cells HAEC; assay: Cell death assay, IncuCyte live-cell imaging; type: cell-based, human; conditions: FIG. 7
Description: as §1, §2

[14] = test system: C4-2 prostate cancer cells; assay: Cell death assay, IncuCyte real-time imaging; type: cell-based, human; conditions: FIG. 8
Description: as §1, §2

[15] = test system: DU145 prostate cancer cells; assay: Cell death assay, IncuCyte real-time imaging; type: cell-based, human; conditions: FIG. 8
Description: as §1, §2

[16] = test system: PC3 prostate cancer cells; assay: Cell death assay, IncuCyte real-time imaging; type: cell-based, human; conditions: FIG. 9
Description: as §1, §2

AKAP7 KO A549 cells = assay: Cell survival, IncuCyte; type: cell-based, human; conditions: 50 uM AZA (FIG. 11)
Description: as §3, with “To obtain the PDE12/AKAP7 DKO cells, a PDE12 knockout A549 cell line was infected with pseudo lentiviruses expression sgRNA for AKAP7 followed by single cell cloning. The PDE12/RNase L DKO cells were obtained by infecting the RNase L KO A549 cells with the pseudo lentivirus expressing sgRNA for AKAP7 followed by single cell cloning. Resulting clones were screened for knock-out of expression using Western Blots with anti-PDE12 antibody (Abcam ab87738), anti-AKAP7 (Proteintech: Cat#12591-1-AP) antibody or monoclonal antibody against human RNase L [13].” left out
as §2

[17] = test system: AKAP7-PDE12 DKO A549 cells; assay: Cell survival, IncuCyte; type: cell-based, human; conditions: 50 uM AZA (FIG. 11)
Description: as §3, with “To obtain the PDE12/AKAP7 DKO cells, a PDE12 knockout A549 cell line was infected with pseudo lentiviruses expression sgRNA for AKAP7 followed by single cell cloning. The PDE12/RNase L DKO cells were obtained by infecting the RNase L KO A549 cells with the pseudo lentivirus expressing sgRNA for AKAP7 followed by single cell cloning. Resulting clones were screened for knock-out of expression using Western Blots with anti-PDE12 antibody (Abcam ab87738), anti-AKAP7 (Proteintech: Cat#12591-1-AP) antibody or monoclonal antibody against human RNase L [13].” left out
as §2

PDE12 KO A549 cells = assay: Cell survival, IncuCyte; type: cell-based, human; conditions: 50 uM AZA (FIG. 11)
Description: as §3, with “To obtain the PDE12/AKAP7 DKO cells, a PDE12 knockout A549 cell line was infected with pseudo lentiviruses expression sgRNA for AKAP7 followed by single cell cloning. The PDE12/RNase L DKO cells were obtained by infecting the RNase L KO A549 cells with the pseudo lentivirus expressing sgRNA for AKAP7 followed by single cell cloning. Resulting clones were screened for knock-out of expression using Western Blots with anti-PDE12 antibody (Abcam ab87738), anti-AKAP7 (Proteintech: Cat#12591-1-AP) antibody or monoclonal antibody against human RNase L [13].” left out
as §2

[18] = test system: RNASEL KO A549 cells with knock-in of WT RNase L; assay: Cell death assay, IncuCyte, RNase L knock-in; type: cell-based, human; conditions: 50 μM AZA for 72 hr
Description: (§7) Both WT and R667A RNase L have a FLAG epitope attached. Cells were lysed after 72 hr and proteins were analyzed by Western blot probed with anti-Flag M2 antibody (Sigma-Aldrich) (upper) and anti-β-actin antibody (Sigma-Aldrich) (lower). […] Dead cells and total cells were determined with an IncuCyte real-time imaging system using a dual-dye method. A minimum of three wells were treated with each experimental condition. The data are average±SD from three independent replicates. […] Three separate wells were treated with each experimental condition and a minimum of 4 image fields (>10,000 cells/well) were analyzed per well.
as §2

[19] = test system: RNASEL KO A549 cells with knock-in of mutant RNase L (R667A); assay: Cell death assay, IncuCyte, RNase L knock-in; type: cell-based, human; conditions: 50 μM AZA for 72 hr
Description: as §7, §2

[20] = test system: OAS (1, 2, 3) triple KO HME cells; assay: Cell death assay, IncuCyte; type: cell-based, human; conditions: AZA 50 μM, compared with WT HME
Description: as §7, §2

[21] = test system: MAVS-ADAR1 DKO A549 cells; assay: Cell survival, IncuCyte; type: cell-based, human; conditions: 50 mM AZA (FIG. 19), compared with WT cells
Description: (§8) In FIG. 19 WT, RNase L-ADAR1 DKO, MAVS-ADAR1 DKO, MAVS-ADAR1-RNase L TKO and p150 ADAR1 isoform KO A549 cells were incubated without AZA (panel A) or with […] AZA (panels B and C). Percent survival after […] AZA treatment was calculated using an IncuCyte system. The data are average=±SD from three independent replicates. Similar data were obtained from two additional independent experiments.
as §2

[22] = test system: MAVS-ADAR1-RNase L TKO A549 cells; assay: Cell survival, IncuCyte; type: cell-based, human; conditions: 50 μM AZA (FIG. 19)
Description: as §8, §2

[23] = test system: RNase L-ADAR1 DKO A549 cells; assay: Cell survival, IncuCyte; type: cell-based, human; conditions: 50 mM AZA (FIG. 19)
Description: as §8, §2

ADAR1 p150 KO A549 cells = assay: Cell survival, IncuCyte; type: cell-based, human; parameters: dose or concentration left out as unconfirmed; conditions: AZA (FIG. 19C)
Description: as §2

Nc1ncn([C@@H]2O[C@H](CO)[C@@H](O)[C@H]2O)c(=O)n1 [AZA, 5-azacytidine]
cell death (WT A549 cells [1]; 50 uM AZA, by 60 hours of treatment): 85%
cell survival (WT A549 cells [1]; AZA 25 uM by itself): 57%
AZA sensitivity (WT A549 cells [1]; FIG. 7, compared with normal lung epithelia): highly sensitive
cytotoxicity of AZA with ionizing radiation (WT A549 cells [1]; IR 10 Gy for 10 min, then AZA 25 μM or 12.5 μM for 50 hr): potentiates the cytotoxicity of AZA
cell death (RNase L KO A549 cells [2]; 50 uM AZA): 9%
cell death (RNase L KO A549 cells [2]; 100 uM AZA): 17%
sensitivity to treatment (cell survival) (RNase L KO A549 cells [2]; AZA 25 uM, 2-5A 1 uM transfected, or both): completely resistant
AZA sensitivity (RNase L KO A549 cells [2]; AZA (FIG. 19)): AZA resistant
sensitivity to AZA treatment (MAVS KO A549 cells [3]): slightly less sensitive
sensitivity to AZA treatment [4]: almost completely resistant
caspase3/7 activation (MAVS KO A549 cells [5]): at best only a small effect in reducing caspase3/7 activation
caspase3/7 activation [6]: highly resistant
caspase3/7 activation (RNase L KO A549 cells [7]): resistant
caspase3/7 activation (WT A549 cells [8]; 50 uM AZA): high levels of caspase3/7 activation
PARP cleavage (RNase L KO A549 cells [9]): only a slight increase
cleaved PARP (WT A549 cells [10]): large increase in cleaved PARP
AZA sensitivity [11]: resistant
AZA sensitivity [12]: resistant
AZA sensitivity [13]: resistant
induction of cell death by AZA [14]: relatively resistant
induction of cell death by AZA [15]: sensitive
induction of cell death by AZA [16]: sensitive
cell survival (AKAP7 KO A549 cells): 56%
cell survival [17]: 17%
cell survival (PDE12 KO A549 cells): 37%
sensitivity to AZA treatment [18]: sensitized cells to AZA treatment
sensitivity to AZA treatment [19]: did not
sensitivity to AZA [20]: relatively resistant
AZA sensitivity [21]: enhanced AZA sensitivity
AZA sensitivity [22]: AZA resistant
AZA sensitivity [23]: AZA resistant
cytotoxic effect of AZA (ADAR1 p150 KO A549 cells): highly sensitive

Nc1ncn([C@H]2C[C@H](O)[C@@H](CO)O2)c(=O)n1 [DAC, 5-aza-2′-deoxycytidine]
cell survival (WT A549 cells [1]; 25 uM DAC, up to 70 hrs): 56%
cell survival (WT A549 cells [1]; 50 uM DAC, up to 70 hrs): 47%
sensitivity to DAC relative to AZA (WT A549 cells [1]; up to 70 hrs): less sensitive
effect on survival (RNase L KO A549 cells [2]; DAC, up to 70 hrs): no effect

CC(NC(=O)C(NC(=O)OCc1ccccc1)C(C)C)C(=O)NC(CC(=O)O)C(=O)CF (stereo not drawn) [Z-VAD] (Cbz-Val-Ala-Asp-CH2F; configuration not given here)
effect on caspase3/7 activation by AZA (WT A549 cells [8]; 50 uM Z-VAD in presence of 50 uM AZA): greatly suppressed caspase3/7 activation
